Results taken from ChEMBL document CHEMBL3860053, “Optimization of amino acid thioesters as inhibitors of metallo-β-lactamase L1” (Bioorg Med Chem Lett, 2016).
In brackets after ≈: the same amount, converted by molar mass.

Tests used:
[1] = Inhibition of metallo-beta-lactamase L1 (unknown origin) overexpressed in Escherichia coli BL21(DE3) assessed as restoration of cefazolin antibacterial activity by measuring cefazolin MIC at 16 ug/ml measured after 12 hrs by macrodilution broth method (reference value: 16 ug/ml)
[2] = Inhibition of metallo-beta-lactamase L1 (unknown origin) overexpressed in Escherichia coli BL21(DE3) preincubated for 30 mins followed by addition of cefazolin as substrate by spectrophotometric method
Escherichia coli = experiment: Potentiation of cefazolin-induced antibacterial activity against Escherichia coli BL21(DE3) assessed as cefazolin MIC at 16 ug/ml measured after 12 hrs by macrodilution broth method (reference value: 4 ug/ml); type: functional

SMILES | MIC [1] | IC50 [2] | MIC (Escherichia coli)
CCCCCC(=O)N[C@@H](Cc1ccccc1)C(=O)SCC(=O)O | 2 µg/mL (≈ 5.93 µM) | 330 nM | 4 µg/mL
CSCC[C@H](NC(=O)c1ccccc1)C(=O)SCC(=O)O | 4 µg/mL (≈ 12.2 µM) | 80 nM | 4 µg/mL
O=C(O)CSC(=O)[C@H](Cc1ccccc1)NC(=O)Cc1ccc(-c2ccccc2)cc1 | 2 µg/mL (≈ 4.61 µM) | 140 nM | 4 µg/mL
CSCC[C@H](NC(=O)Cc1ccc(-c2ccccc2)cc1)C(=O)SCC(=O)O | 4 µg/mL (≈ 9.58 µM) | 20 nM | 4 µg/mL
O=C(O)CSC(=O)c1ccc(NC(=O)OCc2ccccc2)cc1 | 16 µg/mL (≈ 46.3 µM) | – | 4 µg/mL
O=C(O)CSC(=O)[C@H](Cc1ccccc1)NC(=O)Cc1ccccc1 | 2 µg/mL (≈ 5.6 µM) | 250 nM | 4 µg/mL
CCCCCC(=O)N[C@@H](Cc1c[nH]c2ccccc12)C(=O)SCC(=O)O | 4 µg/mL (≈ 10.6 µM) | 600 nM | 4 µg/mL
O=C(O)CSC(=O)[C@H](Cc1c[nH]c2ccccc12)NC(=O)Cc1ccccc1 | 4 µg/mL (≈ 10.1 µM) | 210 nM | 4 µg/mL
CSCC[C@H](NC(=O)Cc1ccccc1)C(=O)SCC(=O)O | 4 µg/mL (≈ 11.7 µM) | 90 nM | 4 µg/mL
O=C(O)CSC(=O)[C@H](Cc1c[nH]c2ccccc12)NC(=O)Cc1ccc(-c2ccccc2)cc1 | 4 µg/mL (≈ 8.46 µM) | 80 nM | 4 µg/mL
